The record followed here is US7199285B2, “Modulation of abscisic acid signal transduction in plants” (University of California, San Diego, priority 2000, dated 2007).

The test system of test [1] is Arabidopsis thaliana seeds. In words: seed germination on minimum medium with ABA. It counts as in vivo. The note with it: 0.3 μM ABA. As to the method:
This was carried out using Arabidopsis lines (Columbia background, T3 seeds), which were transformed with a T-DNA (SK1015) (D. Weigel et al., Plant Physiol., 122:1003 (2000)), and plated on minimum medium (0.25×MS) with 0.3 μM ABA. After 4 days at 4° C., seeds were transferred to 28° C., continuous light. After 5 more days, germination was analyzed. Non-germinated seeds were transferred to soil and further analyzed.

The subject of a further test is abh1 mutant. Briefly: seed germination, hypocotyl and root growth assays in the presence of hormones. It counts as in vivo, Arabidopsis thaliana. The note with it: abh1, hormone concentrations from 10 nM to 100 μM. As to the method: Other hormone signaling mutants were analyzed in control experiments: axr1–3 (auxin insensitive) (C. Lincoln et al., Plant Cell, 2:1071(1990)), ein2-1 (ethylene insensitive) (J. M. Alonso et al., Science, 284:2148 (1999)), gai-1 (GA insensitive) (M. Koornneef et al., Physiol Plant., 65:33 (1985)), era1-2 (ABA hypersensitive) (S. Cutler et al., Science, 273:1239 (1996))), and jar1-1 (JA insensitive) (P. E. Staswick et al., Proc. Natl. Acad. Sci. U.S.A., 89:6837 (1992)).

Test [2] concerns guard cells. Briefly: stomatal closure in response to ABA. It counts as cell-based, Arabidopsis thaliana. The note with it: abh1, stomata opened 12 hours at 95% humidity. As to the method:
ABH1 is expressed in guard cells. To determine whether ABH1 modulates early ABA signal transduction elements, stomatal closure in response to ABA was investigated. Stomata were opened by exposing plants for 12 hours to high humidity (95%). Under these conditions stomatal apertures were similar in wild-type and abh1 (2.03±0.19 μm, wild-type, n=60; 1.92±0.21 μm, abh1, n=60; P>0.38). Stomatal closure in abh1 was ABA hypersensitive compared to wild-type (P<0.001). When stomatal apertures were measured in leaves harvested directly from plants grown under lower humidity (40%), without exogenous ABA addition, stomatal apertures of abh1 were smaller than those of wild-type plants (P<0.001), possibly resulting from a hypersensitive response to endogenous ABA.

The test system of test [3] is guard cells. Briefly: time-resolved cameleon [Ca2+]cyt imaging of ABA-induced [Ca2+]cyt elevations. The test is classed as cell-based, Arabidopsis thaliana. As to the method:
Due to the basal regulation of anion and K^+ channels in abh1 without addition of exogenous ABA, experiments were pursued to analyze whether mechanisms lying further upstream confer ABA hypersensitivity in abh1. […] Therefore we directly investigated whether abh1 modulates ABA-induced [Ca^2+]cyt elevations in time-resolved cameleon [Ca^2+]cyt imaging experiments (G. J. Allen et al, The Plant J., 19:735 (1999)). Stomata were opened by exposing plants for 12 hours to 95% humidity.

`CC1=CC(=O)CC(C)(C)[C@@]1(O)/C=C/C(C)=C\C(=O)O` [ABA, abscisic acid]: the germination result in test [1] (abh1 mutant seeds) is given as “inhibited”. The germination result in test [1] (wild-type seeds) was “allowed germination”. In addition, in the test with abh1 mutant, the “phenotypic response (sensitivity) of abh1 mutant to hormone” value was “showed phenotypic responses only to ABA”. In the test on guard cells [2], the “stomatal closure sensitivity compared to wild-type” value is reported as “hypersensitive”. Further, in the test on guard cells [3] (abh1, 0.5 μM ABA), the “cells responding with one [Ca2+]cyt elevation” value was determined as 19%, the “cells showing multiple repetitive [Ca2+]cyt increases” value is given as 45%, the “cells showing no response” value was found to be 36% and the “guard cells showing [Ca2+]cyt increases” value amounted to 64%. Besides, in the test on guard cells [3] (wild-type, 0.5 μM ABA), the “average peak increase of [Ca2+]cyt” value was 170 ± 25 nM, the “guard cells showing [Ca2+]cyt increase (typically only one)” value came to 44% and the “guard cells showing no [Ca2+]cyt increase” value came to 56%.
Consider `C=C1C[C@]23C[C@@]1(O)CC[C@H]2[C@@]12C=C[C@H](O)[C@@](C)(C(=O)O1)[C@H]2[C@@H]3C(=O)O` [GA, gibberellic acid], for which the “phenotypic response (sensitivity) of abh1 mutant to hormone” value in the test on abh1 mutant is given as “slightly reduced sensitivity”.
